Columns and labels:
[1] = target: PI3Kα (p110[H1047R]/p85) kinase (Homo sapiens, UniProt P42336, H1047R); test: PI3Kα (p110[H1047R]/p85) kinase ADP-Glo Assay; type: biochemical; conditions: 25 uM ATP; for selectivity: WT/H1047R: ADP-Glo Assay IC50 ratio
Summary of the method: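 PI3Kα H1047R/p85 pre-incubated 30 min at room temperature with PI(4,5)P2:PS substrate ([…]) and compound ([…]) in HEPES pH 7.5 buffer with MgCl2; ATP ([…]) then added for 120 min. ADP quantified by ADP-Glo luminescence; IC50 from four-parameter logistic fit.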

[2] = target: PI3Kα (p110/p85) kinase (wild type, "WT") (Homo sapiens, UniProt P42336); test: PI3Kα (p110/p85) kinase ADP-Glo Assay; type: biochemical; conditions: 25 uM ATP
Chain of PI3Kα (p110/p85) kinase (wild type, "WT") (P42336 whole entry): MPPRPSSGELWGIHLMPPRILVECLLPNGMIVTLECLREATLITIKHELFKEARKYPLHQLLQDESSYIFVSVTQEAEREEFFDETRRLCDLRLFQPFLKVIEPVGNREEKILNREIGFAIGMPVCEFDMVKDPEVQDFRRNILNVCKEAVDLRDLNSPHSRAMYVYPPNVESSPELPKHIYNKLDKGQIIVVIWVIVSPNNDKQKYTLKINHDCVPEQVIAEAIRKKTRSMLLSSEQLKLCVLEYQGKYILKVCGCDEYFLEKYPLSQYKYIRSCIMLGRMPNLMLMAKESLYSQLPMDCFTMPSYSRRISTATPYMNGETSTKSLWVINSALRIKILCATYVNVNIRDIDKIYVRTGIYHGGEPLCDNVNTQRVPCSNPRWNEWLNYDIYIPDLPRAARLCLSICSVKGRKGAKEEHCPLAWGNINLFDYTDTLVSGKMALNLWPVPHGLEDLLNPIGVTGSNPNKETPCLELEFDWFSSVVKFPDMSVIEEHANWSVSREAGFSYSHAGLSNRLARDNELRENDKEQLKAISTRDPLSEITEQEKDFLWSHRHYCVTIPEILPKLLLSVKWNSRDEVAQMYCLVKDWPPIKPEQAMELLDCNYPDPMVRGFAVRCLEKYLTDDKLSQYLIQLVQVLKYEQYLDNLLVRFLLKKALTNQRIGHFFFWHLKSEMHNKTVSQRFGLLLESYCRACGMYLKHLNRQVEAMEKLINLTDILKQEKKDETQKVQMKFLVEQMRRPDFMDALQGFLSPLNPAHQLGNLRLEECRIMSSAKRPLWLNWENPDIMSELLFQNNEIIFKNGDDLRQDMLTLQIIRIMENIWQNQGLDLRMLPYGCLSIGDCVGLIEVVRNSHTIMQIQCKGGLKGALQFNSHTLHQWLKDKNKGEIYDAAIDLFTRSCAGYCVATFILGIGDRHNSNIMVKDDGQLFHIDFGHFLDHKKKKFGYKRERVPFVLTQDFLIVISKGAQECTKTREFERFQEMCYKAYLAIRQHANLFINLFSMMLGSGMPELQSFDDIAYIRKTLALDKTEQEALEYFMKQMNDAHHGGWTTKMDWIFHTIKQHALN
Chain of PI3Kα (p110/p85) kinase (wild type, "WT") (P27986 whole entry partner): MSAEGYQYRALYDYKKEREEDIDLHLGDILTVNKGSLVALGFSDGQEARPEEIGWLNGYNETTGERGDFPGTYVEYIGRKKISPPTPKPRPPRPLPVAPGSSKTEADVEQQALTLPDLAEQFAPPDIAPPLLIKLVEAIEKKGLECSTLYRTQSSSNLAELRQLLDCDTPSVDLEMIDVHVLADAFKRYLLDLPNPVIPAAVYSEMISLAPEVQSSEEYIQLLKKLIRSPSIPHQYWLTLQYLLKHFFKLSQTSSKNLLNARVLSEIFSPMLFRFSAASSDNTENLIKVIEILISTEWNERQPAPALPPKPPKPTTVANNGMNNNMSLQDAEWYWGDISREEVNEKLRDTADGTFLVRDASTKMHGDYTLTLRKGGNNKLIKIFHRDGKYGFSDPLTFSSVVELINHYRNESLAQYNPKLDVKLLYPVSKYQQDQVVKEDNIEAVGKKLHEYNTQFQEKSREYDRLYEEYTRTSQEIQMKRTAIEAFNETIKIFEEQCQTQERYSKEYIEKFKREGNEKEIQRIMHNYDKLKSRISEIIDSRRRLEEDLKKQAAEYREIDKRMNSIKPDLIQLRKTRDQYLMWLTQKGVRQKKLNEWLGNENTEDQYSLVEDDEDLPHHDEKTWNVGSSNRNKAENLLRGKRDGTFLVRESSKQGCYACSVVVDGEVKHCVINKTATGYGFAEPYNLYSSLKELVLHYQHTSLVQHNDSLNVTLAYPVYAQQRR
Summary of the method: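 Wild-type PI3Kα p110/p85 preincubated 30 min at RT with PI(4,5)P2:PS substrate ([…]) and compound ([…]) in HEPES pH7.5 buffer with MgCl2, DTT and BSA; reaction started with 25 µM ATP for 120 min at RT. ADP measured by ADP-Glo luminescence; IC50 from four-parameter logistic fit.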

Chain of PI3Kα (p110[H1047R]/p85) kinase (P42336 whole entry H1047R): as the sequence (P42336 whole entry) above, with H1047R counted along it
Chain of PI3Kα (p110[H1047R]/p85) kinase (P27986 whole entry partner): as the sequence (P27986 whole entry partner) above

Row | Structure (SMILES) | IC50 [1] | selectivity: WT/H1047R [1] | IC50 [2]
1 | CC(Nc1ccccc1C(=O)O)c1cccc2c(=O)n(C)c(-c3ccccc3)cc12 (stereo not shown) [Example 20, 2-((1-(2-methyl-1-oxo-3-phenyl-1,2-dihydroisoquinolin-5-yl)ethyl)amino)benzoic acid] | 0.093 µM | 108.4 | 10.1 µM
2 | Cc1cc(C(C)Nc2ccccc2C(=O)O)c2cc(-c3cccc(C(C)(C)C#N)c3)n(C)c(=O)c2c1 (stereo not shown) [Example 5, 2-((1-(3-(3-(2-cyanopropan-2-yl)phenyl)-2,7-dimethyl-1-oxo-1,2-dihydroisoquinolin-5-yl)ethyl)amino)benzoic acid] | 0.375 µM | 14.1 | 5.28 µM
3 | Cc1cc(C(C)Nc2ccccc2C(=O)O)c2cc(-c3ccc(N4CCC(C)(O)CC4)nc3)n(C)c(=O)c2c1 (stereo not shown) [Example 72, 2-((1-(3-(6-(4-hydroxy-4-methylpiperidin-1-yl)pyridin-3-yl)-2,7-dimethyl-1-oxo-1,2-dihydroisoquinolin-5-yl)ethyl)amino)benzoic acid] | 1.07 µM | 19.2 | 20.5 µM
4 | Cc1cc(C(C)Nc2ccccc2C(=O)O)c2cc(NC(=O)c3ccccc3)n(C)c(=O)c2c1 (stereo not shown) [Example 24, 2-((1-(3-benzamido-2,7-dimethyl-1-oxo-1,2-dihydroisoquinolin-5-yl)ethyl)amino)benzoic acid] | 1.03 µM | 38.2 | 39.2 µM
5 | Cc1cc([C@@H](C)Nc2ccccc2C(=O)O)c2cc(-c3cnc(C(C)(C)O)nc3)n(C)c(=O)c2c1 [Example 67, (R)-2-((1-(3-(2-(2-hydroxypropan-2-yl)pyrimidin-5-yl)-2,7-dimethyl-1-oxo-1,2-dihydroisoquinolin-5-yl)ethyl)amino)benzoic acid] | 1.21 µM | 11.2 | 13.6 µM
6 | Cc1cc(C(C)Nc2ccccc2C(=O)O)c2cc(-c3ccc(F)cc3F)n(C)c(=O)c2c1 (stereo not shown) [Example 11, 2-((1-(3-(2,4-difluorophenyl)-2,7-dimethyl-1-oxo-1,2-dihydroisoquinolin-5-yl)ethyl)amino)benzoic acid] | 0.21 µM | 100.2 | 21.1 µM
7 | Cc1cc(C(C)Nc2ccccc2C(=O)O)c2cc(-c3cccc(F)c3)n(C)c(=O)c2c1 (stereo not shown) [Example 7, 2-((1-(3-(3-fluorophenyl)-2,7-dimethyl-1-oxo-1,2-dihydroisoquinolin-5-yl)ethyl)amino)benzoic acid] | 0.164 µM | 15.3 | 2.52 µM
8 | Cc1cc([C@H](C)Nc2ccccc2C(=O)O)c2cc(-c3ccccc3)n(C)c(=O)c2c1 [Example 31, (S)-2-((1-(2,7-dimethyl-1-oxo-3-phenyl-1,2-dihydroisoquinolin-5-yl)ethyl)amino)benzoic acid] | > 100 µM |  | > 100 µM
9 | Cc1cc(C(C)Nc2ccccc2C(=O)O)c2cc(-c3ccc(C(F)(F)F)cc3)n(C)c(=O)c2c1 (stereo not shown) [Example 49, 2-((1-(2,7-dimethyl-1-oxo-3-(4-(trifluoromethyl)phenyl)-1,2-dihydroisoquinolin-5-yl)ethyl)amino)benzoic acid] | 0.457 µM | 20.8 | 9.53 µM
10 | Cc1cc(C(C)Nc2cc3ccsc3cc2C(=O)O)c2cc(-c3ccccc3)n(C)c(=O)c2c1 (stereo not shown) [Example 47, 5-((1-(2,7-dimethyl-1-oxo-3-phenyl-1,2-dihydroisoquinolin-5-yl)ethyl)amino)benzo[b]thiophene-6-carboxylic acid] | 0.525 µM | 27.3 | 14.3 µM
11 | Cc1cc([C@H](C)Nc2ccccc2C(=O)O)c2cc(-c3ccc(C(C)(C)O)nc3)n(C)c(=O)c2c1 [Example 57, (S)-2-((1-(3-(6-(2-hydroxypropan-2-yl)pyridin-3-yl)-2,7-dimethyl-1-oxo-1,2-dihydroisoquinolin-5-yl)ethyl)amino)benzoic acid] | > 100 µM | <0.9 | 88.4 µM
12 | COc1cccc(-c2cc3c(C(C)Nc4ccccc4C(=O)O)cc(C)cc3c(=O)n2C)c1 (stereo not shown) [Example 13, 2-((1-(3-(3-methoxyphenyl)-2,7-dimethyl-1-oxo-1,2-dihydroisoquinolin-5-yl)ethyl)amino)benzoic acid] | 0.192 µM | 30.3 | 5.82 µM
13 | COc1ncc(-c2cc3c([C@@H](C)Nc4ccccc4C(=O)O)cc(C)cc3c(=O)n2C)cc1F [Example 59, (R)-2-((1-(3-(5-fluoro-6-methoxypyridin-3-yl)-2,7-dimethyl-1-oxo-1,2-dihydroisoquinolin-5-yl)ethyl)amino)benzoic acid] | 0.281 µM | 15.3 | 4.31 µM
14 | Cc1cc(C(C)Nc2c(C(=O)O)sc3ccccc23)c2cc(-c3ccccc3)n(C)c(=O)c2c1 (stereo not shown) [Example 48, 3-((1-(2,7-dimethyl-1-oxo-3-phenyl-1,2-dihydroisoquinolin-5-yl)ethyl)amino)benzo[b]thiophene-2-carboxylic acid] | 0.829 µM | 6.2 | 5.16 µM
15 | CC(Nc1ccccc1C(=O)O)c1cccn2c(=O)cc(-c3ccccc3)cc12 (stereo not shown) [Example 25, 2-((1-(4-oxo-2-phenyl-4H-quinolizin-9-yl)ethyl)amino)benzoic acid] | 0.229 µM | 104.0 | 23.8 µM
16 | COc1ncc(-c2cc3c(C(C)Nc4ccccc4C(=O)O)cc(C)cc3c(=O)n2C)cc1F (stereo not shown) [Example 58, 2-((1-(3-(5-fluoro-6-methoxypyridin-3-yl)-2,7-dimethyl-1-oxo-1,2-dihydroisoquinolin-5-yl)ethyl)amino)benzoic acid] | 0.336 µM | 29.7 | 9.99 µM
17 | Cc1cc([C@@H](C)Nc2ccccc2C(=O)O)c2cc(-c3ccc(F)cc3)n(C)c(=O)c2c1 [Example 34, (R)-2-((1-(3-(4-fluorophenyl)-2,7-dimethyl-1-oxo-1,2-dihydroisoquinolin-5-yl)ethyl)amino)benzoic acid] | 0.107 µM | 39.0 | 4.18 µM

Further lines, results first:

Row | IC50 [1] | selectivity: WT/H1047R [1] | IC50 [2] | Structure (SMILES)
18 | 1.5 µM | 23.5 | 35.4 µM | Cc1cc(C(C)Nc2ccccc2C(=O)O)c2cc(-c3cnn(CC45CC6C[C@H](C4)C[C@H](C6)C5)c3C)n(C)c(=O)c2c1 (stereo partly drawn) [Example 87, 2-((1-(3-(1-(((3S,5S)-adamantan-1-yl)methyl)-5-methyl-1H-pyrazol-4-yl)-2,7-dimethyl-1-oxo-1,2-dihydroisoquinolin-5-yl)ethyl)amino)benzoic acid]
19 | > 100 µM |  | > 100 µM | Cc1cc(C(C)Nc2ccncc2C(=O)O)c2cc(-c3ccc(F)cc3)n(C)c(=O)c2c1 (stereo not shown) [Example 97, 4-((1-(3-(4-fluorophenyl)-2,7-dimethyl-1-oxo-1,2-dihydroisoquinolin-5-yl)ethyl)amino)nicotinic acid]
20 | 0.387 µM | >258 | > 100 µM | Cc1cc(C(C)Nc2ccccc2C(=O)O)c2cc(C#Cc3cnn(-c4ccccc4)c3)n(C)c(=O)c2c1 (stereo not shown) [Example 94, 2-((1-(2,7-dimethyl-1-oxo-3-((1-phenyl-1H-pyrazol-4-yl)ethynyl)-1,2-dihydroisoquinolin-5-yl)ethyl)amino)benzoic acid]
21 | 0.974 µM | 32.3 | 31.4 µM | Cc1cc(C(C)Nc2ccccc2C(=O)O)c2cc(-c3ccc4c(c3)C(=O)N(C)C4)n(C)c(=O)c2c1 (stereo not shown) [Example 75, 2-((1-(2,7-dimethyl-3-(2-methyl-3-oxoisoindolin-5-yl)-1-oxo-1,2-dihydroisoquinolin-5-yl)ethyl)amino)benzoic acid]
22 | 0.091 µM | 47.6 | 4.33 µM | Cc1cc(C(C)Nc2ccccc2C(=O)O)c2cc(-c3ccc(F)cc3)n(C3COC3)c(=O)c2c1 (stereo not shown) [Example 95, 2-((1-(3-(4-fluorophenyl)-7-methyl-2-(oxetan-3-yl)-1-oxo-1,2-dihydroisoquinolin-5-yl)ethyl)amino)benzoic acid]
23 | 0.152 µM | 11.5 | 1.75 µM | Cc1cc(C(C)Nc2ccccc2C(=O)O)c2cc(C#Cc3ccn(C)n3)n(C)c(=O)c2c1 (stereo not shown) [Example 88, 2-((1-(2,7-dimethyl-3-((1-methyl-1H-pyrazol-3-yl)ethynyl)-1-oxo-1,2-dihydroisoquinolin-5-yl)ethyl)amino)benzoic acid]
24 | 0.549 µM | 6.0 | 3.31 µM | Cc1cc(C(C)Nc2ccccc2S(C)(=O)=O)c2cc(-c3ccccc3)n(C)c(=O)c2c1 (stereo not shown) [Example 82, 2,7-dimethyl-5-(1-((2-(methylsulfonyl)phenyl)amino)ethyl)-3-phenylisoquinolin-1(2H)-one]
25 | 0.516 µM | 22.8 | 11.8 µM | Cc1cc(C(C)Nc2ccccc2C(=O)O)c2cc(C3=CCN(c4ccccc4)C3)n(C)c(=O)c2c1 (stereo not shown) [Example 76, 2-((1-(2,7-dimethyl-1-oxo-3-(1-phenyl-2,5-dihydro-1H-pyrrol-3-yl)-1,2-dihydroisoquinolin-5-yl)ethyl)amino)benzoic acid]
26 | 0.158 µM | 43.3 | 6.84 µM | Cc1cc(C(C)Nc2ccccc2C(=O)O)c2cc(C#CC3(O)CCCC3)n(C)c(=O)c2c1 (stereo not shown) [Example 89, 2-((1-(3-((1-hydroxycyclopentyl)ethynyl)-2,7-dimethyl-1-oxo-1,2-dihydroisoquinolin-5-yl)ethyl)amino)benzoic acid]

Reference: US20260125346A1, “Isoquinolinone Derivatives and 4H-Quinolizinone Derivatives and Pharmaceutical Compositions Thereof for the Treatment of Disease” (BeOne Medicines I GmbH, priority 2023, published 2026)
